Measurements taken from patent US12338279B2, “Selective and potent inhibitory antibodies of myostatin activation” (SCHOLAR ROCK, INC., priority 2022, dated 2025).

What was measured:
Format in all cases: in vivo, mouse
[1] = system: male C57/BL6 mice on high fat diet; assay: Diet-induced obesity model, semaglutide with Ab109, withdrawal and continuous arms (Example 6); details: for Relative Fat Mass Day 63 (% Body Fat): 60%/45% high fat diet
Experimental: Male C57/BL6 male mice (n=8/group) were either fed regular mouse chow (Group 1) or placed on a 60% high fat diet at six weeks of age and maintained on the 60% high fat diet until 21 weeks of age (Groups 2-8), at which time the study began (day 0). On day 0, animals in groups 2-8 were switched to a 45% high fat diet and maintained on the 45% high fat diet until the animals were terminated. […] Body weight was measured three times per week and qNMR measurements of lean mass and fat mass were obtained on the days set forth.
Animals in groups 3 and 4 were dosed with semaglutide weekly for 14 days, then terminated. Animals in groups 5 and 6 (weight regain groups), were treated with semaglutide for 35 days, then the semaglutide treatment was ended while the myostatin activation inhibiting antibody treatment continued until the animals were terminated on day 63. The animals in Groups 7 and 8 were treated with semaglutide for 63 days, i.e., they remained on semaglutide until the study terminated on day 63.
At termination, left and right gastrocnemius muscles were removed and frozen; the liver was weighed, one lobe was fixed, and the remainder was frozen; epididymal adipose tissue was removed and weighed; subcutaneous adipose tissue was removed and weighed; and a terminal serum bleed was obtained.

[2] = system: circulating leptin; assay: Circulating leptin (U-PLEX Metabolic Hormones Combo 1), Example 6; details: for Leptin Day 64 (circulating leptin): 60%/45% high fat diet
Experimental: Circulating leptin was measured using the U-PLEX Metabolic Hormones Combo 1 (mouse) according to manufacturer's instructions (Meso Scale Diagnostics, #K15306K-2). As expected, circulating leptin was higher in animals fed the high fat diet than animals fed a standard chow.

[3] = system: male C57/BL6 mice on high fat diet; assay: Diet-induced obesity model, Ab109 with 0.01 or 0.04 mg/kg semaglutide (Example 9); details: for loss in quadriceps weight: FIG. 21A
Experimental: Male C57/BL6 male mice (n=8/group) were placed on a 60% high fat diet at ˜6 weeks of age and maintained on the 60% high fat diet until 21 weeks of age (Groups 1-12), at which time the study began (day −7). On day −7, animals in groups 1-12 were switched to a 45% high fat diet and maintained on the 45% high fat diet until the animals were terminated. […] Body weight was measured three times per week and qNMR measurements of lean mass and fat mass were obtained pre-dose on day 0 and on days 7, 14 and 21. Fasting glucose was measured on day 18 after a 4 hour fast.
Animals in groups 3-12 were dosed with semaglutide daily for 3 weeks, then terminated. Animals in groups 1, 3, and 4 were treated with IgG control antibody, and those in groups 2, 5-12 were treated with myostatin activation inhibiting antibody treatment, for 3 weeks.
At termination, left gastrocnemius and quadriceps muscles were removed and frozen; the liver was weighed, one lobe was frozen; epididymal (perigonadal) adipose tissue was removed and weighed; inguinal (subcutaneous) adipose tissue was removed and weighed; and a terminal serum bleed was obtained.

[4] = system: total myostatin in serum; assay: Circulating total myostatin in serum (acidification ELISA), dexamethasone model; details: as compared to apitegromab
Excerpt: Briefly, serum samples were acidified at low pH (e.g., pH ˜2.5) to dissociate the bound antibody from the immune complex and to convert all myostatin in the sample to the active form of growth factor (i.e., mature myostatin). Samples were then neutralized and assayed for the presence of mature myostatin on ELISA plates coated with anti-mature myostatin antibodies as capture reagents.

[5] = semaglutide 0.04 mg/kg day 7-35 (regain arm) with control hIgG
[6] = semaglutide 0.04 mg/kg day 7-63 with control hIgG
[7] = semaglutide 0.04 mg/kg and hIgG

Which “Relative Fat Mass Day 63 (% Body Fat)” value [1, 5] does the source give for semaglutide [reference compound] here?
Its value is 28.69 % Body Fat.

What about the “Relative Fat Mass Day 63 (% Body Fat)” value [1, 6] of the same substance?
Its value is 14.84 % Body Fat.

And the “lean mass lost while on semaglutide” value [1, 7]?
The value was “about 4%”.

What about the “net loss of lean mass at the end of the study” value [1, 7] of the same substance?
The value was 2.5%.

And the fat mass ([1]; semaglutide 0.04 mg/kg, FIG. 14D)?
The fat mass was “induced fat mass loss”.

And the “Leptin Day 64 (circulating leptin)” value [2, 5]?
Its value is 37.87 ng/mL.

What about the “Leptin Day 64 (circulating leptin)” value [2, 6] of the same substance?
Its value is 6.357 ng/mL.

And the circulating leptin ([2]; treatment arm as in the words, FIG. 14K)?
The circulating leptin was “Continuous semaglutide administration lowered circulating leptin”.

And the “loss in lean mass” value ([3]; 0.01 mg/kg semaglutide, FIG. 20B)?
Its value is 4.7%.

What about the lean mass lost ([3]; 0.04 mg/kg semaglutide and hIgG, 3 weeks, FIG. 20A) of the same substance?
Its lean mass lost is “about 9.5%”.

What about the “loss in quadriceps weight” value ([3]; semaglutide high dose (0.04 mg/kg)) of the same substance?
Its value is −7.6%.

And the “loss in quadriceps weight” value ([3]; semaglutide low dose (0.01 mg/kg))?
Its value is −4.8%.

“apitegromab: prior art myostatin-selective activation inhibitor antibody targeting pro/latent myostatin [reference compound]” was tested. Which “accumulation of total or latent myostatin in serum samples from dosed subjects” value [4] did it give?
Its value is “increased accumulation”.
